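Cultured in 96-well plates, cells were exposed to test compound for 48 hours across five concentrations. TGI: concentration producing complete growth inhibition.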
What was measured:
Experiment in all cases: NCI-60 cell line screen, 48 h
786-0 renal = test system: 786-0 renal
A498 renal = test system: A498 renal
A549 NSCLC = test system: A549 NSCLC
ACHN renal = test system: ACHN renal
CAKI-1 renal = test system: CAKI-1 renal
COLO 205 colon = test system: COLO 205 colon
DLD-1 colon = test system: DLD-1 colon
DMS 114 small cell lung = test system: DMS 114 small cell lung
DMS 273 small cell lung = test system: DMS 273 small cell lung
EKVX NSCLC = test system: EKVX NSCLC
HCC-2998 colon = test system: HCC-2998 colon
HCT-116 colon = test system: HCT-116 colon
HCT-15 colon = test system: HCT-15 colon
HL-60(TB) leukemia = test system: HL-60(TB) leukemia
HT29 colon = test system: HT29 colon
IGROV1 ovarian = test system: IGROV1 ovarian
KM12 colon = test system: KM12 colon
KM20L2 colon = test system: KM20L2 colon
LOX IMVI melanoma = test system: LOX IMVI melanoma
LXFL 529 NSCLC = test system: LXFL 529 NSCLC
M19-MEL melanoma = test system: M19-MEL melanoma
MALME-3M melanoma = test system: MALME-3M melanoma
NCI-H226 lung = test system: NCI-H226 lung
NCI-H23 lung = test system: NCI-H23 lung
NCI-H460 lung = test system: NCI-H460 lung
NCI-H522 lung = test system: NCI-H522 lung
OVCAR-3 ovarian = test system: OVCAR-3 ovarian
OVCAR-5 ovarian = test system: OVCAR-5 ovarian
OVCAR-8 ovarian = test system: OVCAR-8 ovarian
RXF 393 renal = test system: RXF 393 renal
SF-268 CNS = test system: SF-268 CNS
SF-295 CNS = test system: SF-295 CNS
SF-539 CNS = test system: SF-539 CNS
SK-MEL-2 melanoma = test system: SK-MEL-2 melanoma
SK-MEL-28 melanoma = test system: SK-MEL-28 melanoma
SK-MEL-5 melanoma = test system: SK-MEL-5 melanoma
SK-OV-3 ovarian = test system: SK-OV-3 ovarian
SN12C renal = test system: SN12C renal
SNB-19 CNS = test system: SNB-19 CNS
SNB-75 CNS = test system: SNB-75 CNS
SNB-78 CNS = test system: SNB-78 CNS
SR leukemia = test system: SR leukemia
SW-620 colon = test system: SW-620 colon
TK-10 renal = test system: TK-10 renal
U251 CNS = test system: U251 CNS
UACC-257 melanoma = test system: UACC-257 melanoma
UACC-62 melanoma = test system: UACC-62 melanoma
UO-31 renal = test system: UO-31 renal
XF 498 CNS = test system: XF 498 CNS
CCRF-CEM leukemia = test system: CCRF-CEM leukemia
HOP-18 NSCLC = test system: HOP-18 NSCLC
HOP-62 NSCLC = test system: HOP-62 NSCLC
K-562 leukemia = test system: K-562 leukemia
M14 melanoma = test system: M14 melanoma
MOLT-4 leukemia = test system: MOLT-4 leukemia
OVCAR-4 ovarian = test system: OVCAR-4 ovarian
RPMI-8226 leukemia = test system: RPMI-8226 leukemia

Measured: TGI

Nc1ncnc2c1ncn2CCCC(c1ccccc1)P(=O)(O)O (configuration not stated)
30.7 µM: CAKI-1 renal
not listed: CCRF-CEM leukemia | HOP-18 NSCLC | HOP-62 NSCLC | K-562 leukemia | M14 melanoma | MOLT-4 leukemia | OVCAR-4 ovarian | RPMI-8226 leukemia
> 100 µM: all other assays above

COc1cc(O)c(C(=O)CC(C)=O)c(OC)c1
not listed: A498 renal | HCT-15 colon | M19-MEL melanoma | SR leukemia
> 100 µM: all other assays above
